From US20210403443A1, “SUBSTITUTED 1,2,4-OXADIAZOLE, ITS APPLICATION AND A PHARMACEUTICAL PREPARATION COMPRISING IT” (SVENOX PHARMACEUTICALS LLC, priority 2018, published 2021)
In brackets after ≈: the same amount, converted by molar mass.

Assays:
Assay in all cases: microbe, parasite or virus in culture
Format in all cases: cell-based
Details in all cases: for MIC: Mycobacterium tuberculosis, 336 h, read-out: Minimum inhibiting concentration of substances with general formula I
[1] = tested on: M. tuberculosis MDR strain Praha 4
[2] = tested on: M. tuberculosis MDR strain 234/2005
[3] = tested on: M. tuberculosis MDR strain 9449/2007
[4] = tested on: M. tuberculosis MDR strain Praha 1
[5] = tested on: M. tuberculosis MDR strain 8666/2010
[6] = tested on: M. tuberculosis MDR strain 7357/1998
[7] = tested on: M. tuberculosis MDR strain Praha 131

Molecule | Minimum inhibiting concentration of commonly used antibiotics and antituberculosis medicaments [1] | strain resistant or sensitive to the drug [1] | Minimum inhibiting concentration of commonly used antibiotics and antituberculosis medicaments [2] | strain resistant or sensitive to the drug [2] | Minimum inhibiting concentration of commonly used antibiotics and antituberculosis medicaments [3] | strain resistant or sensitive to the drug [3] | Minimum inhibiting concentration of commonly used antibiotics and antituberculosis medicaments [4] | strain resistant or sensitive to the drug [4] | Minimum inhibiting concentration of commonly used antibiotics and antituberculosis medicaments [5] | strain resistant or sensitive to the drug [5] | Minimum inhibiting concentration of commonly used antibiotics and antituberculosis medicaments [6] | strain resistant or sensitive to the drug [6] | Minimum inhibiting concentration of commonly used antibiotics and antituberculosis medicaments [7] | strain resistant or sensitive to the drug [7] | MIC [1] | MIC [2] | MIC [3] | MIC [4] | MIC [5] | MIC [6] | also measured
CC(C)/N=c1\cc2n(-c3ccc(Cl)cc3)c3ccccc3nc-2cc1Nc1ccc(Cl)cc1 [Clofazimin] | 0.53 R μmol · l^−1 | 0.53 R | 0.06 C μmol · l^−1 | 0.06 C | 0.13 C μmol · l^−1 | 0.13 C | 0.53 R μmol · l^−1 | 0.53 R | 2.11 R μmol · l^−1 | 2.11 R | 0.13 C μmol · l^−1 | 0.13 C | 0.26 C μmol · l^−1 | 0.26 C | – | – | – | – | – | – | –
CC[C@@H](CO)NCCN[C@@H](CC)CO [Etambutol] | 19.6 R μmol · l^−1 | 19.6 R | 19.6 R μmol · l^−1 | 19.6 R | 9.8 C μmol · l^−1 | 9.8 C | 39.2 R μmol · l^−1 | 39.2 R | 19.6 R μmol · l^−1 | 19.6 R | 19.6 R μmol · l^−1 | 19.6 R | 39.2 R μmol · l^−1 | 39.2 R | – | – | – | – | – | – | –
NCC[C@H](O)C(=O)N[C@@H]1C[C@H](N)[C@@H](O[C@H]2O[C@H](CN)[C@@H](O)[C@H](O)[C@H]2O)[C@H](O)[C@H]1O[C@H]1O[C@H](CO)[C@@H](O)[C@H](N)[C@H]1O [Amikacin] | 0.85 C μmol · l^−1 | 0.85 C | 0.43 C μmol · l^−1 | 0.43 C | 0.43 C μmol · l^−1 | 0.43 C | 0.43 C μmol · l^−1 | 0.43 C | 1.7 C μmol · l^−1 | 1.7 C | 0.85 C μmol · l^−1 | 0.85 C | >27.2 R μmol · l^−1 | >27.2 R | – | – | – | – | – | – | –
[H]/N=C(/N)N[C@H]1[C@H](O)[C@@H](O)[C@H](O[C@@H]2O[C@@H](C)[C@](O)(C=O)[C@H]2O[C@@H]2O[C@@H](CO)[C@H](O)[C@@H](O)[C@@H]2NC)[C@@H](N/C(N)=N\[H])[C@@H]1O [Streptomycin] | >27.5 R μmol · l^−1 | >27.5 R | 27.5 R μmol · l^−1 | 27.5 R | >27.5 R μmol · l^−1 | >27.5 R | 13.7 R μmol · l^−1 | 13.7 R | >27.5 R μmol · l^−1 | >27.5 R | >27.5 R μmol · l^−1 | >27.5 R | >27.5 R μmol · l^−1 | >27.5 R | – | – | – | – | – | – | –
O=[N+]([O-])c1cc(CSc2nc(-c3ccc(Cl)cc3)no2)cc([N+](=O)[O-])c1 [Compound 4] | – | – | – | – | – | – | – | – | – | – | – | – | – | – | 0.5 µM (≈ 0.196 µg/mL) | 0.5 µM (≈ 0.196 µg/mL) | 1 µM (≈ 0.393 µg/mL) | 2 µM (≈ 0.786 µg/mL) | 0.5 µM (≈ 0.196 µg/mL) | 1 µM (≈ 0.393 µg/mL) | MIC [7]: 1 µM (≈ 0.393 µg/mL)
O=[N+]([O-])c1cc(CSc2nc(-c3cccc(Cl)c3)no2)cc([N+](=O)[O-])c1 [Compound 5] | – | – | – | – | – | – | – | – | – | – | – | – | – | – | 0.5 µM (≈ 0.196 µg/mL) | 0.5 µM (≈ 0.196 µg/mL) | 1 µM (≈ 0.393 µg/mL) | 1 µM (≈ 0.393 µg/mL) | 0.5 µM (≈ 0.196 µg/mL) | 1 µM (≈ 0.393 µg/mL) | MIC [7]: 1 µM (≈ 0.393 µg/mL)
CO[C@H]1/C=C/O[C@@]2(C)Oc3c(C)c(O)c4c(O)c(c(/C=N/N5CCN(C)CC5)c(O)c4c3C2=O)NC(=O)/C(C)=C\C=C\[C@H](C)[C@H](O)[C@@H](C)[C@@H](O)[C@@H](C)[C@H](OC(C)=O)[C@@H]1C [Rifampicin] | >9.7 R μmol · l^−1 | >9.7 R | >9.7 R μmol · l^−1 | >9.7 R | >9.7 R μmol · l^−1 | >9.7 R | >9.7 R μmol · l^−1 | >9.7 R | >9.7 R μmol · l^−1 | >9.7 R | >9.7 R μmol · l^−1 | >9.7 R | >9.7 R μmol · l^−1 | >9.7 R | – | – | – | – | – | – | –
O=[N+]([O-])c1cc(CSc2nc(-c3ccc(F)cc3)no2)cc([N+](=O)[O-])c1 [Compound 8] | – | – | – | – | – | – | – | – | – | – | – | – | – | – | 0.5 µM (≈ 0.188 µg/mL) | 0.5 µM (≈ 0.188 µg/mL) | 0.5 µM (≈ 0.188 µg/mL) | 0.5 µM (≈ 0.188 µg/mL) | 0.5 µM (≈ 0.188 µg/mL) | 0.5 µM (≈ 0.188 µg/mL) | MIC [7]: 0.5 µM (≈ 0.188 µg/mL)
NNC(=O)c1ccncc1 [Isoniazid] | 14.6 R μmol · l^−1 | 14.6 R | 14.6 R μmol · l^−1 | 14.6 R | 58.3 R μmol · l^−1 | 58.3 R | 14.6 R μmol · l^−1 | 14.6 R | 29.2 R μmol · l^−1 | 29.2 R | 14.6 R μmol · l^−1 | 14.6 R | 14.6 R μmol · l^−1 | 14.6 R | – | – | – | – | – | – | –
CC1COc2c(N3CCN(C)CC3)c(F)cc3c(=O)c(C(=O)O)cn1c23 (stereo not drawn) [Ofloxacin] | >22.2 R μmol · l^−1 | >22.2 R | 0.69 C μmol · l^−1 | 0.69 C | 2.75 C μmol · l^−1 | 2.75 C | 1.38 C μmol · l^−1 | 1.38 C | 11.1 R μmol · l^−1 | 11.1 R | 11.1 R μmol · l^−1 | 11.1 R | 22.2 R μmol · l^−1 | 22.2 R | – | – | – | – | – | – | –
Gentamicin | 0.52 C μmol · l^−1 | 0.52 C | 0.26 C μmol · l^−1 | 0.26 C | 1.05 C μmol · l^−1 | 1.05 C | 1.05 C μmol · l^−1 | 1.05 C | 2.09 C μmol · l^−1 | 2.09 C | 1.05 C μmol · l^−1 | 1.05 C | >8.37 R μmol · l^−1 | >8.37 R | – | – | – | – | – | – | –
COc1ccc(-c2noc(SCc3cc([N+](=O)[O-])cc([N+](=O)[O-])c3)n2)cc1 [Compound 3] | – | – | – | – | – | – | – | – | – | – | – | – | – | – | 0.5 µM (≈ 0.194 µg/mL) | 0.5 µM (≈ 0.194 µg/mL) | 0.5 µM (≈ 0.194 µg/mL) | 1 µM (≈ 0.388 µg/mL) | 0.5 µM (≈ 0.194 µg/mL) | 0.5 µM (≈ 0.194 µg/mL) | MIC [7]: 0.5 µM (≈ 0.194 µg/mL)
O=[N+]([O-])c1cc(CSc2nc(-c3ccc(Br)cc3)no2)cc([N+](=O)[O-])c1 [Compound 9] | – | – | – | – | – | – | – | – | – | – | – | – | – | – | 0.5 µM (≈ 0.219 µg/mL) | 0.5 µM (≈ 0.219 µg/mL) | 0.5 µM (≈ 0.219 µg/mL) | 0.5 µM (≈ 0.219 µg/mL) | 0.5 µM (≈ 0.219 µg/mL) | 1 µM (≈ 0.437 µg/mL) | MIC [7]: 1 µM (≈ 0.437 µg/mL)
